Key:
[1] = system: mouse hepatic fibrosis model induced by CCl4; assay: Mouse hepatic fibrosis model induced by carbon tetrachloride (CCl4); format: in vivo; settings: gavage 5 mg/kg once a day, 6 weeks
Protocol: Mouse hepatic fibrosis model: male C577BL/6 mice (8-week old) were used with 8 in each group and were injected intra-abdominally with 0.2 ml (diluted by olive oil) of 10% CCl4 twice a week; and a control group was injected intra-abdominally with an equal volume of olive oil for 18 consecutive weeks.

[2] = system: chronic lymphocytic leukemia; settings: phase II clinical trials of chronic lymphocytic leukemia; cited from earlier work

SMILES: c1cn2cc(-c3ccc4cn[nH]c4c3)nc(Nc3ccc(N4CCOCC4)cc3)c2n1 [GS-9973, Entospletinib]
- generation of hepatic collagen (Sirius Red staining) [1]: remarkably inhibit
- effective rate [2]: 91%
